In data set [1] the target is T1, human SV2A (Homo sapiens, UniProt Q7L0J3). Set-up: Duplicate samples of human frontal cortex gray matter were homogenized in PBS buffer; from tissue; host or cells: human frontal cortex gray matter homogenate. To be noted: other SV2A ligands; cited from earlier work.
For data set [2], the target named is T2, SV2A (Macaca mulatta, UniProt H9EQH8). The experiment in a line: LEV blocking and displacement PET scans, Lassen plot. Set-up: from tissue; host or cells: brain of living rhesus monkeys (in vivo PET). Type of data set: in vivo, rhesus monkeys (Macaca mulatta). The settings on record: LEV 30 mg/kg i.v., Lassen plot with [^18F]SDM-16. From the text: (§1) Four monkeys were studied.
T2 sequence (H9EQH8 1-742): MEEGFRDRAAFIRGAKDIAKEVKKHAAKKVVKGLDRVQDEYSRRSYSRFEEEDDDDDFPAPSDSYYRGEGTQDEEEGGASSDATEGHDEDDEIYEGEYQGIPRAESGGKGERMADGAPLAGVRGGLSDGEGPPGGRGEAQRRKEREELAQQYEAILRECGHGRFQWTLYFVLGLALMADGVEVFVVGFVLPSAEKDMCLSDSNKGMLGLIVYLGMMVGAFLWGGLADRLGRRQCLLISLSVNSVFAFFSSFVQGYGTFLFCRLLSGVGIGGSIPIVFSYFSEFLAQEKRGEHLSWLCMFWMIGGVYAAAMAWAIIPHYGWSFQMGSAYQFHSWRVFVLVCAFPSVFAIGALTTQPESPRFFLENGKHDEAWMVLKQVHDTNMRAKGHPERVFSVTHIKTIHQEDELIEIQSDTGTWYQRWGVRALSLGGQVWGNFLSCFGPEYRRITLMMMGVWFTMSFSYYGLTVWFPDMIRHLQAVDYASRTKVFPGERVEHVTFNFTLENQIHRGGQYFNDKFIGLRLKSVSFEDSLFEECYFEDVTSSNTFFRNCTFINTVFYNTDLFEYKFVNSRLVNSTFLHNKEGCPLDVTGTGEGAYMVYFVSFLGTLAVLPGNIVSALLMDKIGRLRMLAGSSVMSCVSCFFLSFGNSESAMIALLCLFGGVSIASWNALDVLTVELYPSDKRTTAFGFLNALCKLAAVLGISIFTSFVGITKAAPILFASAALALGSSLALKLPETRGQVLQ
To examine the in vivo binding specificity, SV2A occupancy, and the extent of nonspecific binding in the monkey brain, we performed the Lassen plot analysis using data from the two baseline scans and one blocking scan in the same monkey.

Data set [3] in a line: Adverse event observation during PET imaging. It counts as in vivo, rhesus monkeys. To be noted: tracer at microdose 0.646–0.926 µg; LEV i.v. 30 mg/kg. Here is the method:
as §1
Adverse event was also not observed following LEV (i.v., 30 mg/kg) administration, including the displacement and blocking scan.

The target in data set [4] is T1, human SV2A. The experiment in a line: biochemical. Here is the method:
Competition binding assays were performed twice independently using separate assay materials, with 4 technical replicates from each independent assay. […] Duplicate samples of human frontal cortex gray matter were homogenized in PBS buffer (10 mg/mL) for storage at − 80 °C and were diluted to a stock concentration of 4 mg/mL in PBS on the day of the assays. […] Working stocks of brain homogenate (100 µL; final concentration of 2 mg/mL), blocking ligands (20 µL), and radioligand (80 µL; final concentration 2.5 nM) were combined in quadruplicate wells of 96-well plates, sealed, and incubated at room temperature for 90 min on an orbital shaker set to 250 RPM. Reaction plates were filtered, rapidly washed with cold PBS, and dried. Forty microliters of Microscint-20 scintillation cocktail (Perkin-Elmer) was added to each well, and the plate was counted using a Microbeta2 plate reader (Perkin-Elmer). GraphPad Prism was used for curve fitting using the one-site Ki model.

The nature of data set [5]: Measurement of lipophilicity (octanol / PBS pH 7.4). It counts as physicochemical. To be noted: for logP: octanol/PBS pH 7.4. Here is the method: The logP of [^18F]SDM-16 was determined by a method modified from previously published procedures. Briefly, an aliquot of […] (10 µCi) of the radioligand was added to a 2-mL microtube containing 0.8 mL of octanol and 0.8 mL of 1 × phosphate buffered saline (1 × PBS, pH 7.4). The mixture was vortexed for 30 s and then centrifuged at 2000 g for 2 min. A subsample of the octanol (0.1 mL) and 1 × PBS (0.5 mL) layers was evaluated with a gamma counter. The major portion of the octanol layer (0.5 mL) was diluted with another 0.3 mL of octanol, mixed with a fresh portion of 0.8 mL of PBS, vortexed, centrifuged, and analyzed as described above. This process was repeated until consistent log P values were obtained, with five consecutive equilibration procedures being performed for each logP measurement. Four separate measurements were performed for [^18F]SDM-16 on different days.

A short description of data set [6]: Free base fraction in plasma by modified Henderson-Hasselbalch equation (Eq. 1). The settings on record: Eq. 1, plasma pH 7.4.
The test system of data set [7] is SV2A. Nature of the data set: Brain PET imaging with 1TC kinetic modeling. The settings on record: for VT (baseline): 1TC.
A short description of data set [8]: Plasma free fraction (fp) by ultrafiltration. To be noted: monkey, plasma (separated from spiked whole blood). It counts as in vitro ADME, rhesus monkey. Here is the method: The unbound fraction of [^18F]SDM-16 in plasma (fp) of rhesus monkey was measured in triplicate using the ultrafiltration method. Briefly, [^18F]SDM-16 solution was added to 3 mL of whole blood. After incubation at ambient temperature for 5 min, the blood sample was centrifuged at 3900 rpm for 5 min. A sample of the supernatant plasma (0.3 mL) was loaded onto the reservoir of a Centrifree® Ultrafiltration device (Merck Millipore Ltd. Tullagreen, Carrigtwohill, Co. Cork, IRELAND) in triplicate and centrifuged at 1228 g for 20 min. The fp value was calculated as the ratio of radioactivity in the filtrate to that in the plasma.

A short description of data set [9]: Plasma radiometabolite analysis during PET scans. It counts as in vivo, rhesus monkeys. To be noted: 30 min p.i. Here is the method:
Arterial blood samples were collected during the PET scans to measure the radioactivity in plasma for generation of the metabolite-corrected arterial plasma input function. Plasma radiometabolite analysis was performed using the column-switching method, following a published protocol. Briefly, arterial blood samples were collected at 3-, 8-, 15-, 30-, 60-, 90-, 120-, and 180-min post-injection (p. i.), treated with urea (8 M), filtered, and injected onto a self-packed short column (4.6 × 19 mm) eluting with 1% MeCN in water at a flow rate of 2 mL/min. The sample was then back flushed onto a Gemini-NX column (5 μm, 4.6 mm × 250 mm) eluting with 40% MeCN/60% 0.1 M ammonium formate (pH 6.4) at a flow rate of 1.2 mL/min. The eluent was fraction-collected using an automated spectrum chromatography CF-1 fraction collector. Activity in the whole blood, plasma, filtrated plasma-urea mix, filters, and HPLC fractions were counted with automatic gamma well-counter (Wizard 2, PerkinElmer). The sample recovery rate, extraction efficiency, and HPLC fraction recovery were monitored. The unmetabolized [^18F]SDM-16 parent fraction was determined as the ratio of the sum of radioactivity in fractions containing the parent compound to the total amount of radioactivity collected and fitted with inverted Gamma4 approaches.
[^18F]SDM-16 had higher metabolite-corrected plasma SUV than the other SV2A radiotracers, indicating slower plasma clearance and higher metabolic stability (Fig. 2a). Whole-blood and plasma-input functions were highly consistent between the two animals, with a stable plasma to whole-blood ratio of 0.93 ± 0.13 over the entire 180-min acquisition period (Fig. S1).

For data set [10] the following is noted: estimated from human; cited from earlier work.
Data set [11] deals with T2, SV2A. The settings on record: previously determined; cited from earlier work.
Data set [12] deals with SV2A. The settings on record: calculated from K1/k2 using 2TCM-c; cited from earlier work.
On the set-up of data set [13]: method as in PMID 33826008. To be noted: 30 min p.i.; cited from earlier work.

The values below come from PMC8940841, “A metabolically stable PET tracer for imaging synaptic vesicle protein 2A: synthesis and preclinical characterization of [^18F]SDM-16” (European Journal of Nuclear Medicine and Molecular Imaging, 2021).

Where two headings read alike, the source gives them in different places.

T1 sequence (Q7L0J3 whole entry): as the sequence (H9EQH8 1-742) above, with S64G, V572I counted along it

As usually defined, the Ki is a dissociation constant, usually derived from enzyme kinetics or from competition with a known ligand. As to `CC[C@@H](C(N)=O)N1CCCC1=O` [Levetiracetam, levetiracetam, reference compound], the Ki in data set [1] is 2100 nM. This compound registered an SV2A occupancy in [2] of 79%. Also, in data set [3], the adverse events entry was “not observed”.

For `Cc1nccn1CN1C[C@@H](c2cc(F)cc(F)c2)CC1=O` [SDM-16], affinity in [4] was put at a Ki of 0.9 nM. For the same compound, in data set [3], the adverse events entry is on record as “no adverse events were observed”.

Broadly, the logD is the decadic logarithm of the distribution of all forms, ionised or not, between an organic phase and buffer at a given pH. A word on the logP: it is a log measure of how a compound divides between an organic and an aqueous phase. A low value points to lower lipophilicity. One may read the fraction unbound as the share of the substance not bound to proteins or other matrix. Lower therefore signals little free substance. As to `[11CH3]n1cncc1CN1C[C@@H](c2cc(F)cc(F)c2)CC1=O` [[^11C]UCB-A], the logD in data set [5] (octanol / 1x PBS, pH 7.4) was 1.1. The compound also registered a logP in data set [5] of 1.1. In data set [6], the “fraction present in plasma as free base” value is listed as 49%. Also, the K1 is on record as 0.11 ± 0.01 mL/cm^3 per min in data set [7] (Amygdala); 0.15 ± 0.03 mL/cm^3 per min in [7] (Anterior cingulate); 0.15 ± 0.03 mL/cm^3 per min in [7] (Brainstem); 0.13 ± 0.02 mL/cm^3 per min in data set [7] (Caudate); 0.17 ± 0.03 mL/cm^3 per min in data set [7] (Cerebellum); 0.17 ± 0.034 mL/cm^3 per min in data set [7] (Cingulate cortex). In addition, the K1 was found to be 0.15 ± 0.03 mL/cm^3 per min in data set [7] (Frontal cortex); 0.10 ± 0.01 mL/cm^3 per min in data set [7] (Globus pallidus); 0.12 ± 0.02 mL/cm^3 per min in data set [7] (Hippocampus); 0.15 ± 0.01 mL/cm^3 per min in [7] (Insular cortex); 0.14 ± 0.03 mL/cm^3 per min in data set [7] (Mean ± SD over brain regions); 0.13 ± 0.02 mL/cm^3 per min in data set [7] (Nucleus accumbens). Further, the K1 in [7] (Occipital cortex) is given as 0.19 ± 0.03 mL/cm^3 per min; in data set [7] (Putamen), 0.17 ± 0.03 mL/cm^3 per min; in data set [7] (Temporal cortex), 0.14 ± 0.02 mL/cm^3 per min; in data set [7] (Thalamus), 0.14 ± 0.03 mL/cm^3 per min. In addition, the “VT (baseline)” value was 15.6 ± 8.2 mL/cm^3 in data set [7] (Amygdala); 21.0 ± 4.9 mL/cm^3 in data set [7] (Brainstem); 49.0 ± 18.2 mL/cm^3 in data set [7] (Frontal cortex); 31.4 ± 16.6 mL/cm^3 in data set [7] (Hippocampus); 57.8 ± 26.9 mL/cm^3 in [7] (Insular cortex); 34.1 ± 4.8 mL/cm^3 in data set [7] (Nucleus accumbens). Also, the results for the “VT (baseline)” value in data set [7] (Occipital cortex) and in [7] (Temporal cortex) were 47.0 ± 16.6 mL/cm^3 and 51.4 ± 26.2 mL/cm^3, respectively. Further, the “SUV (brain tracer uptake)” value in data set [7] (baseline scan, end of scan, frontal cortex and putamen) is listed as “about 4”. Besides, the fraction unbound at 5 min in data set [8] was found to be 0.75. Moreover, the “parent fraction in plasma” value in [9] was 70 ± 7%.

`O=C1C[C@H](c2cc(F)c(F)c(F)c2)CN1Cc1ccncc1[18F]` [[^18F]UCB-H]: the “effective dose (ED)” value in [10] is on record as 15.4 µSv/MBq. This compound came in with a logP in [5] of 2.31. Also, in [11], the VND is given as 7.89 mL/cm^3. Further, in data set [12], the “brain tissue free fraction fND” value is 6.1%. In data set [8], this compound registered a fraction unbound at 5 min of 0.43. Besides, the “parent fraction in plasma” value in [13] is 30 ± 3%.
